What all share (test): growth of human tumour cells (NCI), 48 h
In assay [1] the test system is NCI-H522 lung.
Assay [2] relates to UO-31 renal.
In assay [3] the test system is MOLT-4 leukemia.
The test system of assay [4] is M14 melanoma.
In assay [5] the test system is SR leukemia.
The subject of assay [6] is RPMI-8226 leukemia.
Assay [7] relates to RXF 393 renal.
The subject of assay [8] is OVCAR-5 ovarian.
Assay [9] deals with DU-145 prostate.
The subject of assay [10] is MDA-MB-231 breast.

Molecules are shown by their SMILES.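 How tested: cells in 96-well plates exposed to compound for 48 hours at five concentrations. Abbreviation: GI50, concentration required for 50% inhibition of growth. TGI: total growth inhibition.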

For `COC(=O)C(=O)C(C(=O)C(=O)Nc1ccccc1C(N)=O)c1nc2ccc(C(=O)c3ccccc3)cc2[nH]c1=O` (stereo unspecified), the TGI is 93.8 µM in assay [1]; > 100 µM in [2]; > 100 µM in assay [3]; > 100 µM in assay [4]; > 100 µM in assay [5]; > 100 µM in assay [6]. The TGI in assay [7] and in [8] was > 100 µM throughout.
On to `O=C(Cc1nc2ccc([N+](=O)[O-])cc2[nH]c1=O)C(=O)Nc1cc(Cl)c(Cl)cc1Cl`, for which the TGI in [9], in assay [1], in assay [2], in assay [10], in assay [3] and in assay [4] was > 100 µM throughout. In addition, the TGI in [5], in [7] and in assay [8] was > 100 µM throughout.
Regarding `CCCCCCCCCCCCCCCCCC1=NC(C)(C)CN1CCO`, the GI50 in [9] was 1.81 µM; in assay [1], 1.55 µM; in assay [2], 1.57 µM; in assay [10], 1.77 µM; in assay [3] it was 1.96 µM; in assay [4] it was 1.81 µM. The GI50 in assay [5] was 1.5 µM; in [8], 1.78 µM. In addition, the TGI was determined as 3.27 µM in assay [9]; 3.15 µM in assay [1]; 3.05 µM in assay [2]; 3.41 µM in assay [10]; 4.73 µM in [3]; 3.49 µM in assay [4]. Besides, the TGI worked out at 4.02 µM in assay [5] and 3.6 µM in [8].
Take `CN1c2ccccc2C(=O)Nc2cnc(Cl)nc21`: the TGI in [9], in [1], in [2], in assay [10], in [3] and in assay [4] was > 100 µM throughout. The TGI in assay [6], in [7] and in assay [8] was > 100 µM in each case.
On to `Cc1cccc(CC(C)(C)C)c1NC(=O)C(=O)C(C(=O)c1ccc2ccccc2c1)C1OC(=O)c2ccccc21` (stereo unspecified), for which the TGI was 26.7 µM in assay [1]; 31.1 µM in assay [2]; > 100 µM in assay [4]; > 100 µM in assay [5]; > 100 µM in assay [6]; 14.5 µM in assay [7]. The compound further gave a TGI in assay [8] of 34.7 µM.
Regarding `Cc1[nH]c(=O)nc(N/N=C/c2ccc(O)cc2)c1C(=O)Nc1ccc(Cl)cc1`, the TGI in [1], in assay [2], in [3], in assay [4], in assay [5] and in [6] was > 100 µM in each case.
Regarding `Cc1c(-c2coc(-c3ccc(Cl)cc3)n2)c(=O)n(-c2ccccc2)n1C`, the TGI in assay [1], in assay [2], in assay [3], in assay [4], in assay [5] and in [6] was > 100 µM each time. The TGI in assay [8] is > 100 µM.
Turning to `CCOc1cccnc1/C=N/NC(N)=S`, the GI50 in assay [9] was 3.53 µM; in assay [1] it was 3.05 µM; in assay [2], 2.9 µM; in assay [10], 3.27 µM; in assay [3], 3.13 µM; in assay [4], 3.14 µM. Besides, the GI50 is 2.98 µM in assay [5], 3.82 µM in assay [6] and 6.37 µM in [8]. For the same compound, the TGI in assay [9] was > 100 µM; in assay [1] it was > 100 µM; in assay [2], 26.6 µM; in assay [10], > 100 µM; in [3] it was 10.4 µM; in assay [4] it was 15 µM. Further, the TGI in assay [5] is 12.3 µM; in assay [6], > 100 µM; in [8], > 100 µM.
With `CC1SC2(CCCCC2)N(NC(=O)c2[nH]c3ccc(F)cc3c2-c2ccccc2)C1=O` (stereo unspecified), the GI50 is > 100 µM in assay [9]; 54.4 µM in assay [1]; > 100 µM in assay [2]; 31 µM in assay [10]; > 100 µM in assay [3]; > 100 µM in assay [4]. Also, the GI50 is 41.2 µM in assay [6], 28.3 µM in assay [7] and > 100 µM in assay [8]. For the same compound, the TGI in [9], in assay [1], in assay [2], in [10], in [3] and in assay [4] was > 100 µM each time. The TGI in [6], in assay [7] and in assay [8] was > 100 µM each time.
Regarding `COc1cc2c(c(OC)c1OC)-c1ccc(SC)c(=O)cc1[C@@H](NC(=O)c1ccc(C#N)cc1)CC2`, the TGI in assay [1] was < 0.01 µM; in [2], > 100 µM; in assay [3], > 53.8 µM; in assay [5], > 100 µM; in assay [6], > 100 µM.
Regarding `Fc1nc(F)nc(-c2c3ccccc3c3n2CCS3)n1`, the TGI in [1], in assay [2], in assay [4], in assay [5], in assay [6] and in assay [7] was > 100 µM in each case. The TGI in [8] was > 100 µM.
On to `Cc1cnc2[nH]c(-c3ccccc3)cc(=O)c2c1`, for which the TGI is > 100 µM in assay [9]; 0.526 µM in assay [1]; 68 µM in [2]; > 100 µM in assay [10]; > 14.4 µM in assay [3]; > 18 µM in assay [4]. Moreover, the TGI was > 100 µM in assay [5], > 8.62 µM in assay [6] and > 100 µM in assay [8].
Turning to `O=C1c2ccccc2C(=O)c2c1ccc1c3ccccc3n(Cc3ccccc3)c21`, the TGI in assay [1], in assay [2], in assay [3], in [4], in [5] and in assay [6] was > 100 µM each time. Further, the TGI in assay [8] is > 100 µM.

The values are drawn from PubChem BioAssay (NCI).
